For one assay, the target named is EZH2 (Homo sapiens, UniProt Q15910). Kind of assay: EZH2 assay (rPRC2, 3H SAM methyl transfer to biotinylated oligonucleosomes). It is filed as biochemical. The conditions noted are these: rPRC2, 2 nM EZH2, biotinylated oligonucleosomes, 0.2 μM 3H SAM; top concentration 80 μM. How it is done: (§1) Assays were carried out by mixing rPRC2 together with biotinylated oligonucleosome substrates in the presence of the radio-labeled enzyme co-factor, S-adenosyl-L-methionine (^3H SAM) (Perkin Elmer) and monitoring the enzymatically mediated transfer of tritiated methyl groups from ^3H SAM to histone lysine residues. The amount of resulting tritiated methylhistone product was measured by first capturing the biotinylated oligonucleosomes in streptavidin (SAV) coated FlashPlates (Perkin Elmer), followed by a wash step to remove un-reacted ^3H SAM, and then counting on a TopCount NXT 384 well plate scintillation counter (Perkin Elmer). The final assay conditions for EZH2 were as follows: 50 mM Tris Buffer pH 8.5, 1 mM DTT, 69 μM Brij-35 detergent, 5.0 mM MgCl2, 0.1 mg/mL BSA, 0.2 μM ^3H SAM, 0.2 μM biotinylated oligonucleosomes, 3.6 μM H3K27me3 peptide and 2 nM EZH2.
(§2) Ten point dose response curves were generated by dispensing varying amounts of the 10 mM compound solution in 10 wells of the 384 well plate (Echo; Labcyte), pure DMSO was then used to backfill the wells to insure all wells have the same amount of DMSO. A 12.5 μL volume of the HMT enzyme, H3K27me3 peptide and oligonucleosome substrate in assay buffer was added to each well of the assay plate using a Multidrop Combi (ThermoFisher). Compounds were pre-incubated with the enzyme for 20 min, followed by initiation of the methyltransferase reaction by addition of 12.5 μL of 3H SAM in assay buffer (final volume=25 μL). The final concentrations of compounds ranged from a top default concentration of 80 μM down to 0.16 μM in ten 2-fold dilution steps. Reactions were carried out for 60 minutes and quenched with 20 μL per well of 1.96 mM SAH, 50 mM Tris PH 8.5, 200 mM EDTA. Stopped reactions were transferred to SAV coated Flashplates (Perkin Elmer), incubated for 120 min, washed with a plate washer, and then read on the TopCount NXT (1.0 min/well) to measure the amount of methylhistone product formed during the reaction.

The target in a further assay is Y641N EZH2 (Homo sapiens, UniProt Q15910, Y641N). Nature of the assay: Y641N EZH2 assay (as the EZH2 assay, with H3K27Me2 oligonucleosomes as substrate). The conditions noted are these: Y641N EZH2 mutant, reconstituted H3K27Me2 oligonucleosomes as substrate; top concentration 80 μM. It counts as biochemical. How it is done:
as §1, §2
Assay for Y641N EZH2 was performed as above using reconstituted H3K27Me2 oligonucleosomes as substrate.

Consider 15 compounds from US9409865B2, “Modulators of methyl modifying enzymes, compositions and uses thereof” (Constellation Pharmaceuticals, Inc., priority 2011, dated 2016).

The term IC50 denotes the point on the concentration scale where inhibition reaches its midpoint. Higher therefore signals a need for much substance.

Chain of Y641N EZH2 (Q15910 whole entry Y641N): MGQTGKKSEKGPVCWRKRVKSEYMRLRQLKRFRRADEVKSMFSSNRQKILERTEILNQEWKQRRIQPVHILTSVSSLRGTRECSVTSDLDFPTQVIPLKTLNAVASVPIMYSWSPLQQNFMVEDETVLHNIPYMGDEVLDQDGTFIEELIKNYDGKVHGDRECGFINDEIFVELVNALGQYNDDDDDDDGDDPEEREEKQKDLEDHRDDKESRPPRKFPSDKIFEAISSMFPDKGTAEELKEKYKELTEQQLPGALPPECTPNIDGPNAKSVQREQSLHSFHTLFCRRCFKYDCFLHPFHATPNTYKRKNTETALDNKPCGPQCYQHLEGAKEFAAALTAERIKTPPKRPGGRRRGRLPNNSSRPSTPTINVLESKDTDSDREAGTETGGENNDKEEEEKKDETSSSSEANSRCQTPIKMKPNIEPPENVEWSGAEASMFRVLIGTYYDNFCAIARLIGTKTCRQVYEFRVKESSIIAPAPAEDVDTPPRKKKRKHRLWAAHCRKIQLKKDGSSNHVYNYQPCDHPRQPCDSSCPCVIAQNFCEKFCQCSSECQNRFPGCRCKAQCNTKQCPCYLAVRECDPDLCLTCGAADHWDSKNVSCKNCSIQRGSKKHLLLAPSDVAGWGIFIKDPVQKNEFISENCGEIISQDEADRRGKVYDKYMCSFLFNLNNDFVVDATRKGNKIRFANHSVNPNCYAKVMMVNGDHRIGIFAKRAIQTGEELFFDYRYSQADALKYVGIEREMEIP
Chain of Y641N EZH2 (O75530 whole entry partner): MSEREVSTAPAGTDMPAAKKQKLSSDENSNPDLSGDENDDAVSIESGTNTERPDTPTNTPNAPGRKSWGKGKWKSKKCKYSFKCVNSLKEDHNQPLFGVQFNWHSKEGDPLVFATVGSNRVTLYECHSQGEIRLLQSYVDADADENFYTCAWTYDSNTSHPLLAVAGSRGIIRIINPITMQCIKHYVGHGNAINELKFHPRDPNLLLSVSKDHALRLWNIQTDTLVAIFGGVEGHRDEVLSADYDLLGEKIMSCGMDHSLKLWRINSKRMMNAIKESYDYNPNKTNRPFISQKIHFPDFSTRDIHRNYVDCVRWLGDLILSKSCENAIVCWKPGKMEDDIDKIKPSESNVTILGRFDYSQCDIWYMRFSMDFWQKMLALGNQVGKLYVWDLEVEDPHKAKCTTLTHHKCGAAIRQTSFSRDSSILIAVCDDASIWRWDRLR
Chain of Y641N EZH2 (Q15022 whole entry partner): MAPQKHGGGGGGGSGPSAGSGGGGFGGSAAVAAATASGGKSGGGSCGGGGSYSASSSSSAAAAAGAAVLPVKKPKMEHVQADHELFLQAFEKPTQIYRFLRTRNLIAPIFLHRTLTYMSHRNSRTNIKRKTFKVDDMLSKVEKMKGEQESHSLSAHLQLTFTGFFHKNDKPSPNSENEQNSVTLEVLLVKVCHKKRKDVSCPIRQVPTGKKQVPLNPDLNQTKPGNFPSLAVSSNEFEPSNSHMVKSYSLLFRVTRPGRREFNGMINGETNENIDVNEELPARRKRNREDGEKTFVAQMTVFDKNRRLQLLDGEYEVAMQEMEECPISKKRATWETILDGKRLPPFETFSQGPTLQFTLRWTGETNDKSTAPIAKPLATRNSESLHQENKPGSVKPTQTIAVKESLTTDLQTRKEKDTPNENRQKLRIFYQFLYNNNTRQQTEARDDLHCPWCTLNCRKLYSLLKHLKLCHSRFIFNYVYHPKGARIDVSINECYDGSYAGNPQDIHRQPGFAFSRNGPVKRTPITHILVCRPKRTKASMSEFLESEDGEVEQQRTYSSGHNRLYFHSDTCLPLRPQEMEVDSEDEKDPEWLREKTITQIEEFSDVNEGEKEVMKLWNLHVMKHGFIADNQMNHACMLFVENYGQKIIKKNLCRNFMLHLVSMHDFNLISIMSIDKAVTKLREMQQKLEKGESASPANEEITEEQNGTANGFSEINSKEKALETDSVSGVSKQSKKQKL
Chain of EZH2 (Q15910 whole entry): as the sequence (Q15910 whole entry Y641N) above, with N641Y counted along it
Chain of EZH2 (O75530 whole entry partner): as the sequence (O75530 whole entry partner) above
Chain of EZH2 (Q15022 whole entry partner): as the sequence (Q15022 whole entry partner) above

As for `Cc1cc(C)c(CNC(=O)c2ccc(COC(C)C)cc2)c(=O)[nH]1` [Compound I-6], the IC50 against EZH2 and at Y641N EZH2 was > 10 µM each time.
On to `Cc1cc(C)c(CNC(=O)c2ccc(C(C)C)c(Oc3ccccc3)c2)c(=O)[nH]1` [Compound I-11, N-((2-hydroxy-4,6-dimethylpyridin-3-yl)methyl)-4-isopropyl-3-phenoxy benzamide], for which the IC50 at EZH2 is 1 to 10 µM; against Y641N EZH2 it was > 80 µM.
Taken in the same sequence, the figures for `COC(C)c1ccc(C(=O)NCc2c(C)cc(C)[nH]c2=O)cc1` (stereo not drawn) [Compound I-4, N-((2-hydroxy-4,6-dimethylpyridin-3-yl)methyl)-4-(1-methoxyethyl)benzamide] were < 1 µM and 1 to 10 µM.
In the case of `Cc1cc(C)c(CNC(=O)c2ccn(C(C)C)c(=O)c2)c(=O)[nH]1` [Compound I-14, N-((2-hydroxy-4,6-dimethylpyridin-3-yl)methyl)-1-isopropyl-2-oxo-1,2-dihydropyridine-4-carboxamide], the half-maximal inhibitory concentration (IC50) against EZH2 is 1 to 10 µM; against Y641N EZH2 it was > 80 µM.
Taken in the same sequence, the figures for `CCOC(C)c1ccc(C(=O)NCc2c(C)cc(C)[nH]c2=O)cc1` (stereo not drawn) [Compound I-7, 4-(1-ethoxyethyl)-N-((2-hydroxy-4,6-dimethylpyridin-3-yl)methyl)benzamide] were < 1 µM and 1 to 10 µM.
In the case of `Cc1cc(C)c(CNC(=O)c2ccc(C(C)C)cc2C)c(=O)[nH]1` [Compound I-1, N-((2-hydroxy-4,6-dimethylpyridin-3-yl)methyl)-4-isopropyl-2-methylbenzamide], the IC50 against EZH2 and at Y641N EZH2 was 1 to 10 µM each time.
For `Cc1cc(C)c(CNC(=O)c2ccc(C(C)OC(C)C)cc2)c(=O)[nH]1` (stereo not drawn) [Compound I-5, N-((2-hydroxy-4,6-dimethylpyridin-3-yl)methyl)-4-(1-isopropoxyethyl)benzamide], the IC50 is < 1 µM at EZH2 and 1 to 10 µM at Y641N EZH2.
Taken in the same sequence, the figures for `Cc1cc(C)c(CNC(=O)c2ccc(C(C)C)cc2Cl)c(=O)[nH]1` [Compound I-2, 2-chloro-N-((2-hydroxy-4,6-dimethylpyridin-3-yl)methyl)-4-isopropyl benzamide] were < 1 µM and 1 to 10 µM.
Taken in the same sequence, the figures for `Cc1cc(C)c(CNC(=O)c2ccc(C(C)(C)O)cc2)c(=O)[nH]1` [Compound I-20, N-((2-hydroxy-4,6-dimethylpyridin-3-yl)methyl)-4-(2-hydroxypropan-2-yl)benzamide] were > 10 µM and > 80 µM.
Taken in the same sequence, the figures for `COC(C)(C)c1ccc(C(=O)NCc2c(C)cc(C)[nH]c2=O)cc1` [Compound I-3, N-((2-hydroxy-4,6-dimethylpyridin-3-yl)methyl)-4-(2-methoxypropan-2-yl)benzamide] were 1 to 10 µM and > 10 µM.
As to `Cc1cc(C)c(CNC(=O)c2ccc(C(C)C(C)C)cc2)c(=O)[nH]1` (stereo not drawn) [Compound I-9, N-((2-hydroxy-4,6-dimethylpyridin-3-yl)methyl)-4-(3-methylbutan-2-yl)benzamide], the IC50 against EZH2 is < 1 µM; against Y641N EZH2 it was 1 to 10 µM.
For `CC(=O)NC(C)c1ccc(C(=O)NCc2c(C)cc(C)[nH]c2=O)cc1` (stereo not drawn) [Compound I-29, 4-(1-acetamidoethyl)-N-((2-hydroxy-4,6-dimethylpyridin-3-yl)methyl)benzamide] the same measures were > 80 µM and > 80 µM.
For `Cc1cc(C)c(CNC(=O)c2ccc3c(c2)OCC3C)c(=O)[nH]1` (stereo not drawn) [Compound I-12] the same measures were 1 to 10 µM and > 80 µM.
Taken in the same sequence, the figures for `Cc1cc(C)c(CNC(=O)c2ccc(C(C)OCC(C)C)cc2)c(=O)[nH]1` (stereo not drawn) [Compound I-8, N-((2-hydroxy-4,6-dimethylpyridin-3-yl)methyl)-4-(1-isobutoxyethyl)benzamide] were < 1 µM and 1 to 10 µM.
Regarding `CCCC(C)c1ccc(C(=O)NCc2c(C)cc(C)[nH]c2=O)cc1` (stereo not drawn) [Compound I-10, N-((2-hydroxy-4,6-dimethylpyridin-3-yl)methyl)-4-(pentan-2-yl)benzamide], the results for the IC50 against EZH2 and on Y641N EZH2 were < 1 µM and 1 to 10 µM, respectively.
